Calls of active or inactive are those of the source. No cut-off for these calls is given here.
How the values were obtained:
Type in all cases: functional
[1] = Antioxidant activity assessed as DPPH free radical scavenging activity by measuring amount of compound consumed at 200 uM measured at 10 mins by HPLC
[2] = Antioxidant activity assessed as DPPH free radical scavenging activity by measuring radical-scavenging activity factor (moles of radicals scavenged by each mol of antioxidant) at 20 uM measured at 120 mins by HPLC
[3] = Antioxidant activity assessed as DPPH free radical scavenging activity by measuring radical-scavenging activity factor (moles of radicals scavenged by each mol of antioxidant) at 20 uM measured at 15 mins by HPLC
[4] = Antioxidant activity assessed as DPPH free radical scavenging activity by measuring AA-2G-DPPH adducts level at 200 uM measured at 10 mins by HPLC
[5] = Antioxidant activity assessed as DPPH free radical scavenging activity by measuring AA-2G-DPPH adducts formation at 200 uM measured within 10 mins by HPLC
[6] = Antioxidant activity assessed as DPPH free radical scavenging activity by measuring radical-scavenging activity factor (moles of radicals scavenged by each mol of antioxidant) at 20 uM measured at 10 mins by HPLC
[7] = Antioxidant activity assessed as time duration for DPPH free radical scavenging activity at 20 uM by HPLC
[8] = Antioxidant activity assessed as DPPH free radical scavenging activity by measuring radical-scavenging activity factor (moles of radicals scavenged by each mol of antioxidant) at 20 uM measured at 30 mins by HPLC
[9] = Antioxidant activity assessed as DPPH free radical scavenging activity by measuring retention time of AA-2G-DPPH product at 20 uM incubated for 30 mins by HPLC method
[10] = Antioxidant activity assessed as DPPH free radical scavenging activity by measuring AA-2G-DPPH product formation at 0.25 to 0.75 mM incubated for 30 mins by HPLC method
[11] = Antioxidant activity assessed as DPPH free radical scavenging activity by measuring AA-2G-DPPH adducts formation at 5 mM incubated for 10 to 30 mins by 1H NMR spectroscopy

## O=C1O[C@H]([C@@H](O)CO)C(O)=C1O[C@H]1O[C@H](CO)[C@@H](O)[C@H](O)[C@H]1O
[1]
  Activity: 190 µM
[2]
  scavenging factor: 2.7 mol/mol
[3]
  scavenging factor: 1.7 mol/mol
[4]
  Activity: 190 µM
[5]
  Activity: Active
[6]
  scavenging factor: 1.5 mol/mol
[7]
  TIME: 2 h
[8]
  scavenging factor: 2.1 mol/mol
[9]
  Retention time: 15 min
[10]
  Activity: Dose-dependent effect
[11]
  Activity: Active

## O=C1O[C@H]([C@@H](O)CO)C(O)=C1O
[2]
  scavenging factor: 1.9 mol/mol
[3]
  scavenging factor: 1.8 mol/mol
[6]
  scavenging factor: 1.8 mol/mol
[7]
  TIME: < 0.0167 h
[8]
  scavenging factor: 1.9 mol/mol
[9]
  Activity: inactive

Reference: ChEMBL document CHEMBL4043159, “Structural evidence for the DPPH radical-scavenging mechanism of 2-O-α-d-glucopyranosyl-l-ascorbic acid” (Bioorg Med Chem, 2017)
